{"source": "ChEMBL document CHEMBL1146741", "about": "“Cycloalkyl[b][1,4]benzodiazepinoindoles are agonists at the human 5-HT2C receptor” (Bioorg Med Chem Lett, 2004)", "key": {"[1]": {"molecular_target": "5-hydroxytryptamine receptor 2B (Homo sapiens) (UniProt P41595)", "experiment": "Binding affinity against 5-hydroxytryptamine 2B receptor"}, "[2]": {"molecular_target": "Sodium-dependent serotonin transporter (Rattus norvegicus) (UniProt P31652)", "sequence (P31652 whole entry, looked up)": "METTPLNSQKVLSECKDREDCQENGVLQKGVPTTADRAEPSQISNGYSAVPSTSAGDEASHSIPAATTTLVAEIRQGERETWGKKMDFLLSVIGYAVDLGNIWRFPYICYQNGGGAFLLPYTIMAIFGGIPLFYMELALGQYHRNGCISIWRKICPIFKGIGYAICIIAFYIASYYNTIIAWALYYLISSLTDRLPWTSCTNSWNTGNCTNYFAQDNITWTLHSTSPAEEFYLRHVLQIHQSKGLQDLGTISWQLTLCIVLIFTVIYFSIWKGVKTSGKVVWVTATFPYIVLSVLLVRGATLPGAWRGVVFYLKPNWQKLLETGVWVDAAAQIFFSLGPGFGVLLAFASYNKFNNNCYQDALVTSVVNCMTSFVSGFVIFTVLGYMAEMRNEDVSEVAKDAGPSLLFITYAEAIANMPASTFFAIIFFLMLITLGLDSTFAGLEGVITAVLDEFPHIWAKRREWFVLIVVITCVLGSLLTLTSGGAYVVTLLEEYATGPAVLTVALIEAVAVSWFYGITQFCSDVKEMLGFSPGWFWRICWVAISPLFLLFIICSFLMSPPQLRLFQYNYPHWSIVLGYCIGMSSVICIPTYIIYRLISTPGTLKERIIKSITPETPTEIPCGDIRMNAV", "experiment": "Percent binding affinity against serotonin transporter", "details": "concentration not given here"}}}
{"smiles": "c1cc2c3c(c1)c1c(n3CCNC2)CCCCCC1", "values": [{"measurement": "Ki", "setting": "[1]", "result": "> 5", "unit": "µM"}, {"measurement": "inhibition", "setting": "[2]", "result": 14, "unit": "%"}]}
